Patent publication US20240287007A1, “N-(1,3,4-OXADIAZOL-2-YL)PHENYLCARBOXAMIDES AS HERBICIDES” (BAYER AKTIENGESELLSCHAFT, priority 2021, published 2024)

Key:
Format in all cases: in vivo
AVEFA (Avena fatua) = experiment: Pre-emergence herbicidal effect against AVEFA; details: scored visually after 3 weeks
Text: (§1) Seeds of monocotyledonous and dicotyledonous weed plants and crop plants are laid out in sandy loam soil in wood-fiber pots and covered with soil. The compounds of the invention, formulated in the form of wettable powders (WP) or as emulsion concentrates (EC), are then applied to the surface of the covering soil as aqueous suspension or emulsion at a water application rate equating to 600 to 800 l/ha with addition of 0.2% wetting agent. After the treatment, the pots are placed in a greenhouse and kept under good growth conditions for the trial plants. The damage to the test plants is scored visually after a test period of 3 weeks by comparison with untreated controls (herbicidal activity in percent (%): 100% activity=the plants have died, 0% activity=like control plants).

[1] = tested on: ALOMY (Alopecurus myosuroides); experiment: Pre-emergence herbicidal effect against ALOMY; details: scored visually after 3 weeks
Text: as §1

[2] = tested on: AMARE (Amaranthus retroflexus); experiment: Post-emergence herbicidal action against AMARE; details: visual assessment after about 3 weeks
Procedure: (§2) Seeds of monocotyledonous and dicotyledonous weed and crop plants are laid out in sandy loam soil in wood-fiber pots, covered with soil and cultivated in a greenhouse under good growth conditions. 2 to 3 weeks after sowing, the trial plants are treated at the one-leaf stage. The compounds of the invention, formulated in the form of wettable powders (WP) or as emulsion concentrates (EC), are then sprayed onto the green parts of the plants as aqueous suspension or emulsion at a water application rate equating to 600 to 800 l/ha with addition of 0.2% wetting agent. After the test plants have been left to stand in the greenhouse under optimal growth conditions for about 3 weeks, the action of the preparations is assessed visually in comparison to untreated controls (herbicidal action in percent (%): 100% activity=the plants have died, 0% activity=like control plants).

[3] = tested on: ABUTH (Abutylon threophrasti); experiment: Pre-emergence herbicidal effect against ABUTH; details: 80 g/ha, scored visually after 3 weeks
Text: as §1

[4] = tested on: MATIN (Matricaria inodora); experiment: Pre-emergence herbicidal effect against MATIN; details: scored visually after 3 weeks
Text: as §1

[5] = tested on: AMARE (Amaranthus retroflexus); experiment: Pre-emergence herbicidal effect against AMARE; details: scored visually after 3 weeks
Text: as §1

[6] = tested on: POLCO (Polygonum convolvulus); experiment: Post-emergence herbicidal action against POLCO; details: visual assessment after about 3 weeks
Procedure: as §2

KCHSC (Kochia scoparia) [7] = experiment: Post-emergence herbicidal action against KCHSC; details: visual assessment after about 3 weeks
Procedure: as §2

[8] = tested on: POLCO (Polygonum convolvulus); experiment: Pre-emergence herbicidal effect against POLCO; details: scored visually after 3 weeks
Text: as §1

VERPE (Veronica persica) [9] = experiment: Post-emergence herbicidal action against VERPE; details: visual assessment after about 3 weeks
Procedure: as §2

LOLRI (Lolium rigidum) [10] = experiment: Post-emergence herbicidal action against LOLRI; details: visual assessment after about 3 weeks
Procedure: as §2

[11] = tested on: DIGSA (Digitaria sanguinalis); experiment: Pre-emergence herbicidal effect against DIGSA; details: scored visually after 3 weeks
Text: as §1

SETVI (Setaria viridis) [12] = experiment: Pre-emergence herbicidal effect against SETVI; details: scored visually after 3 weeks
Text: as §1

[13] = tested on: PHBPU (Pharbitis purpurea); experiment: Pre-emergence herbicidal effect against PHBPU; details: 80 g/ha, scored visually after 3 weeks
Text: as §1

[14] = tested on: ALOMY (Alopecurus myosuroides); experiment: Post-emergence herbicidal action against ALOMY; details: visual assessment after about 3 weeks
Procedure: as §2

[15] = tested on: ECHCG (Echinochloa crus-galli); experiment: Pre-emergence herbicidal effect against ECHCG; details: scored visually after 3 weeks
Text: as §1

[16] = tested on: MATIN (Matricaria inodora); experiment: Post-emergence herbicidal action against MATIN; details: visual assessment after about 3 weeks
Procedure: as §2

VIOTR (Viola tricolor) [17] = experiment: Pre-emergence herbicidal effect against VIOTR; details: scored visually after 3 weeks
Text: as §1

LOLRI (Lolium rigidum) [18] = experiment: Pre-emergence herbicidal effect against LOLRI; details: scored visually after 3 weeks
Text: as §1

VIOTR (Viola tricolor) [19] = experiment: Post-emergence herbicidal action against VIOTR; details: visual assessment after about 3 weeks
Procedure: as §2

[20] = tested on: PHBPU (Pharbitis purpurea); experiment: Post-emergence herbicidal action against PHBPU; details: visual assessment after about 3 weeks
Procedure: as §2

SETVI (Setaria viridis) [21] = experiment: Post-emergence herbicidal action against SETVI; details: visual assessment after about 3 weeks
Procedure: as §2

[22] = tested on: ABUTH (Abutylon threophrasti); experiment: Post-emergence herbicidal action against ABUTH; details: visual assessment after about 3 weeks
Procedure: as §2

[23] = tested on: DIGSA (Digitaria sanguinalis); experiment: Post-emergence herbicidal action against DIGSA; details: visual assessment after about 3 weeks
Procedure: as §2

KCHSC (Kochia scoparia) [24] = experiment: Pre-emergence herbicidal effect against KCHSC; details: scored visually after 3 weeks
Text: as §1

VERPE (Veronica persica) [25] = experiment: Pre-emergence herbicidal effect against VERPE; details: scored visually after 3 weeks
Text: as §1

Structure (SMILES): C[S+]([O-])c1c(OC(F)(F)F)ccc(C(=O)Nc2nnco2)c1Cl (racemic) [Example 1-32, 2-chloro-3-(methylsulfinyl)-N-(1,3,4-oxadiazol-2-yl)-4-(trifluoromethoxy)benzamide]
- Pre-emergence effect at 20 g/ha against AVEFA in % (AVEFA (Avena fatua); 20 g/ha): 80%
- Pre-emergence effect at 80 g/ha against A VEFA in % (AVEFA (Avena fatua); 80 g/ha): 100%
- Pre-emergence effect at 20 g/ha against ALOMY in % ([1]; 20 g/ha): 80%
- Pre-emergence effect at 80 g/ha against ALOMY in % ([1]; 80 g/ha): 100%
- Post-emergence effect at 20 g/ha against AMARE in % ([2]; 20 g/ha): 100%
- Post-emergence effect at 80 g/ha against AMARE in % ([2]; 80 g/ha): 100%
- Pre-emergence effect at 80 g/ha against ABUTH in % [3]: 100%
- Pre-emergence effect at 20 g/ha against MATIN in % ([4]; 20 g/ha): 100%
- Pre-emergence effect at 80 g/ha against MATIN in % ([4]; 80 g/ha): 100%
- Pre-emergence effect at 20 g/ha against AMARE in % ([5]; 20 g/ha): 100%
- Pre-emergence effect at 80 g/ha against AMARE in % ([5]; 80 g/ha): 100%
- Post-emergence effect at 20 g/ha against POLCO in % ([6]; 20 g/ha): 90%
- Post-emergence effect at 80 g/ha against POLCO in % ([6]; 80 g/ha): 100%
- Post-emergence effect at 20 g/ha against KCHSC in % (KCHSC (Kochia scoparia) [7]; 20 g/ha): 100%
- Post-emergence effect at 80 g/ha against KCHSC in % (KCHSC (Kochia scoparia) [7]; 80 g/ha): 100%
- Pre-emergence effect at 20 g/ha against POLCO in % ([8]; 20 g/ha): 90%
- Pre-emergence effect at 80 g/ha against POLCO in % ([8]; 80 g/ha): 90%
- Post-emergence effect at 20 g/ha against VERPE in % (VERPE (Veronica persica) [9]; 20 g/ha): 90%
- Post-emergence effect at 80 g/ha against VERPE in % (VERPE (Veronica persica) [9]; 80 g/ha): 100%
- Post-emergence effect at 80 g/ha against LOLRI in % (LOLRI (Lolium rigidum) [10]): 90%
- Pre-emergence effect at 20 g/ha against DIGSA in % ([11]; 20 g/ha): 100%
- Pre-emergence effect at 80 g/ha against DIGSA in % ([11]; 80 g/ha): 100%
- Pre-emergence effect at 20 g/ha against SETVI in % (SETVI (Setaria viridis) [12]; 20 g/ha): 90%
- Pre-emergence effect at 80 g/ha against SETVI in % (SETVI (Setaria viridis) [12]; 80 g/ha): 100%
- Pre-emergence effect at 80 g/ha against PHBPU in % [13]: 90%
- Post-emergence effect at 20 g/ha against ALOMY in % ([14]; 20 g/ha): 80%
- Post-emergence effect at 80 g/ha against ALOMY in % ([14]; 80 g/ha): 90%
- Pre-emergence effect at 20 g/ha against ECHCG in % ([15]; 20 g/ha): 100%
- Pre-emergence effect at 80 g/ha against ECHCG in % ([15]; 80 g/ha): 100%
- Post-emergence effect at 20 g/ha against MATIN in % ([16]; 20 g/ha): 100%
- Post-emergence effect at 80 g/ha against MATIN in % ([16]; 80 g/ha): 100%
- Pre-emergence effect at 20 g/ha against VIOTR in % (VIOTR (Viola tricolor) [17]; 20 g/ha): 100%
- Pre-emergence effect at 80 g/ha against VIOTR in % (VIOTR (Viola tricolor) [17]; 80 g/ha): 100%
- Pre-emergence effect at 20 g/ha against LOLRI in % (LOLRI (Lolium rigidum) [18]; 20 g/ha): 90%
- Pre-emergence effect at 80 g/ha against LOLRI in % (LOLRI (Lolium rigidum) [18]; 80 g/ha): 90%
- Post-emergence effect at 20 g/ha against VIOTR in % (VIOTR (Viola tricolor) [19]; 20 g/ha): 100%
- Post-emergence effect at 80 g/ha against VIOTR in % (VIOTR (Viola tricolor) [19]; 80 g/ha): 100%
- Post-emergence effect at 20 g/ha against PHBPU in % ([20]; 20 g/ha): 90%
- Post-emergence effect at 80 g/ha against PHBPU in % ([20]; 80 g/ha): 100%
- Post-emergence effect at 20 g/ha against SETVI in % (SETVI (Setaria viridis) [21]; 20 g/ha): 100%
- Post-emergence effect at 80 g/ha against SETVI in % (SETVI (Setaria viridis) [21]; 80 g/ha): 100%
- Post-emergence effect at 20 g/ha against ABUTH in % ([22]; 20 g/ha): 90%
- Post-emergence effect at 80 g/ha against ABUTH in % ([22]; 80 g/ha): 100%
- Post-emergence effect at 20 g/ha against DIGSA in % ([23]; 20 g/ha): 90%
- Post-emergence effect at 80 g/ha against DIGSA in % ([23]; 80 g/ha): 90%
- Pre-emergence effect at 20 g/ha against KCHSC in % (KCHSC (Kochia scoparia) [24]; 20 g/ha): 100%
- Pre-emergence effect at 80 g/ha against KCHSC in % (KCHSC (Kochia scoparia) [24]; 80 g/ha): 100%
- Pre-emergence effect at 20 g/ha against VERPE in % (VERPE (Veronica persica) [25]; 20 g/ha): 80%
- Pre-emergence effect at 80 g/ha against VERPE in % (VERPE (Veronica persica) [25]; 80 g/ha): 90%
